Consider five molecules from article PMC7572458, “Multiple mutations in the EPSPS and ALS genes of Amaranthus hybridus underlie resistance to glyphosate and ALS inhibitors” (Scientific Reports, 2020).

The target of assay [1] is T1, ALS (acetolactate synthase) (Amaranthus hybridus, UniProt A0A346FHL9).
T1 construct: native, crude seedling leaf extract supernatant (15,000 g), not purified
Briefly: acetoin colorimetric (creatine/naphthol, […] nm), crude leaf extract. Format: biochemical. The following applies: read-out: I50 (μM) ± SE.

The subject of assay [2] is T2, ALS (acetolactate synthase).
T2 construct: native, crude seedling leaf extract supernatant (15,000 g), not purified
Described as above. Format: biochemical, Amaranthus hybridus. Particulars: MR2 population, zygosity not given; pyruvate, MgCl2, FAD, pH 7.5, 37 °C, 1 h; stated gain; read-out: I50 (μM) ± SE.

T1 sequence (A0A346FHL9 81-669 limits assumed): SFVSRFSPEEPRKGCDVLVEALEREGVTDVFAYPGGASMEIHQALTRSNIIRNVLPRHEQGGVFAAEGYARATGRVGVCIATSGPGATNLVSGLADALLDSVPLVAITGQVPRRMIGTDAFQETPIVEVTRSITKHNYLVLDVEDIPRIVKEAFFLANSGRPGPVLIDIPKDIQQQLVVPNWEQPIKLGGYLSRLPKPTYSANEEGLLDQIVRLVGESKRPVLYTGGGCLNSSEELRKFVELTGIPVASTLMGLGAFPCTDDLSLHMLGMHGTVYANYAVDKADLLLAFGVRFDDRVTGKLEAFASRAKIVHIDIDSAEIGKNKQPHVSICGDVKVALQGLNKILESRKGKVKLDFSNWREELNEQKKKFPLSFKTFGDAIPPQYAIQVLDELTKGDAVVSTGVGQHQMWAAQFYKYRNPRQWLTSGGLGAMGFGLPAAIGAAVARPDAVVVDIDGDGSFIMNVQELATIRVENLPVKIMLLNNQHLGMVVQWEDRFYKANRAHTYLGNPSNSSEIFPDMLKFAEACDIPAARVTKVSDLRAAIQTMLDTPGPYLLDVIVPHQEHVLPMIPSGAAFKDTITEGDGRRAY

Take `COc1nn(C(=O)NS(=O)(=O)c2ccccc2OC(F)(F)F)c(=O)n1C` [flucarbazone]: the figures for the IC50 in assay [1] and in assay [2] were 1 ± 0.1 µM and 145 ± 11.5 µM, respectively.

In the case of `COCc1cnc(C2=NC(C)(C(C)C)C(=O)N2)c(C(=O)O)c1` (stereo not shown) [imazamox], the IC50 in assay [1] was 117 ± 9.1 µM; in assay [2], 3170 ± 112 µM.

Regarding `COc1cc(OC)nc(Oc2cccc(Oc3nc(OC)cc(OC)n3)c2C(=O)O)n1` [byspiribac], the IC50 in assay [1] was 45.9 ± 8 µM; in assay [2], 2730 ± 80 µM.

For `COC(=O)c1ccccc1S(=O)(=O)NC(=O)N(C)c1nc(C)nc(OC)n1` [tribenuron-methyl], the IC50 was 47.5 ± 6.3 µM in assay [1] and 273 ± 26 µM in assay [2].

Consider `COc1ncc(F)c2nc(S(=O)(=O)Nc3c(F)cccc3F)nn12` [florasulam], for which the IC50 in assay [1] is 17.4 ± 1.4 µM; in assay [2] it was 56.5 ± 9 µM.
